Consider four compounds from article PMC9640990 (Frontiers in Pharmacology, 2022).

The conditions of data set [1]: rats; approximately.
The conditions of data set [2]: 1990, cited from earlier work.
The subject of another data set is BCRP mRNA. Kind of data set: BCRP mRNA expression in Caco-2 cells (qRT-PCR). The data set is classed as cell-based. Particulars: 48 h pretreatment, bosentan 20 μM, GA 50 μM, PCA 50 μM, PCE 100 mg/ml. On the technique in general: Real-time PCR tracks product formation cycle by cycle.
A further data set relates to MDR1 mRNA. Kind of data set: MDR1 mRNA expression in Caco-2 cells (qRT-PCR). The data set is classed as cell-based. Particulars: 48 h pretreatment, bosentan 20 μM, GA 50 μM, PCA 50 μM, PCE 100 mg/ml.
The next data set has as its target hOAT3 (Homo sapiens, UniProt Q8TCC7). The data set can be described thus: Inhibition of hOAT3-mediated uptake of 3H-ES in hOAT3-MDCK cells. The data set is classed as cell-based. The following applies: hOAT3-MDCK cells. From the text:
(§1) Considering the relative exposure characteristics, GA and PCA were selected as PK-marker and Q-marker components of PCE in previous studies ([Ma et al., 2015]; [Ma et al., 2016]; [Li et al., 2021b]). In this study, we investigated the concentration-dependent inhibitions of GA and PCA on multiple transporters, including OAT1, OAT3, OCT2, MDR1, and BCRP. Stably expressing cell lines of hOAT1-MDCK, hOAT3-MDCK, hOCT2-S2, hMDR1-MDCK, hBCRP-MDCK, and their mock cells were obtained from Japan Fuji Biomedical Co., Ltd. The cells were maintained in DMEM (Sigma) supplemented with 10% FCS, 1% non-essential amino acids (Sigma), and 2% L-glutamine. The medium for the Transwell® plates (Corning Costar, Cambridge, MA, United States) was supplemented with 0.1% gentamicin. Membrane filters were placed in a 12 mm well with 1.5 and 0.5 ml of culture medium in the basolateral and apical compartments, respectively. Cells were cultured at 37°C in an atmosphere of 5% CO2. The inhibition experiments were adapted from previous methods with minor modifications ([Li et al., 2021a]; [2021b]).
Briefly, the hOAT1-MDCK, hOAT3-MDCK, and hOCT2-S2 cells were trypsinized and suspended in the culture medium to provide a density of 1.5 × 10^5 cells/ml. After incubating for 48 h, the cells were washed twice with preheated DPBS and then pre-incubated with DPBS for 10 min at 37°C. 500 µl of DPBS containing probe substrates was added to initiate the uptake in the presence or absence of GA, PCA or positive inhibitors. The hMDR1-MDCK and hBCRP-MDCK cells were suspended at a density of 4.0 × 10^5 cells/ml. After cultivation for 7 days, cells were washed twice and equilibrated for 30 min at 37°C with the pre-warmed HBSS buffer. […] The radioactive intensity of ^14C-PAH, ^3H-ES, and ^14C-TEA was measured using a Tri-Carb 2910TR scintillator (PerkinElmer, United States). Fluorescence was measured at 485 nm (excitation) and 546 nm (emission) for rhodamine 123, and 425 nm (excitation) and 528 nm (emission) for lucifer yellow. IC50 values were determined by employing GraphPad Prism 9.

A further data set deals with T1, hOCT2 (Homo sapiens, UniProt O15244).
T1 construct: host or cells: S2
T1 sequence (O15244 1-555): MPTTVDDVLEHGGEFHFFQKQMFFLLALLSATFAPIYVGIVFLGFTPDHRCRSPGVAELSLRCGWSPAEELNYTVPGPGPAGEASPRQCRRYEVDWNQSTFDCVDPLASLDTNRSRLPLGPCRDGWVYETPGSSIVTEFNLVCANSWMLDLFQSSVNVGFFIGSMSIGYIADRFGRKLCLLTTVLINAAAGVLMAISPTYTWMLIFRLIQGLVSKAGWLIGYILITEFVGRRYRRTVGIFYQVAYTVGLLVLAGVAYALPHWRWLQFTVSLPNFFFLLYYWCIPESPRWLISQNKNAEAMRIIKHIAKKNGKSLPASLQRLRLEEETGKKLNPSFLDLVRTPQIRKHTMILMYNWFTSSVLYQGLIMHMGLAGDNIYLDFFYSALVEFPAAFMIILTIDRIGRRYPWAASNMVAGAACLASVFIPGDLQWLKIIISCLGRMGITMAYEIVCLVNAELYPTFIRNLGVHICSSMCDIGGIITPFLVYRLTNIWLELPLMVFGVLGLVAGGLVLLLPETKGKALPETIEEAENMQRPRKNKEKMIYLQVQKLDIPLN
The data set can be described thus: Inhibition of hOCT2-mediated uptake of 14C-TEA in hOCT2-S2 cells. The format is cell-based.
Description: as §1, with “Membrane filters were placed in a 12 mm well with 1.5 and 0.5 ml of culture medium in the basolateral and apical compartments, respectively. Cells were cultured at 37°C in an atmosphere of 5% CO2. The inhibition experiments were adapted from previous methods with minor modifications ([Li et al., 2021a]; [2021b]).” left out
Briefly, the hOAT1-MDCK, hOAT3-MDCK, and hOCT2-S2 cells were trypsinized and suspended in the culture medium to provide a density of 1.5 × 10^5 cells/ml. […] The radioactive intensity of ^14C-PAH, ^3H-ES, and ^14C-TEA was measured using a Tri-Carb 2910TR scintillator (PerkinElmer, United States). Fluorescence was measured at 485 nm (excitation) and 546 nm (emission) for rhodamine 123, and 425 nm (excitation) and 528 nm (emission) for lucifer yellow. IC50 values were determined by employing GraphPad Prism 9.

Each structure is given as a SMILES string.

Chain of hOAT3 (Q8TCC7 whole entry): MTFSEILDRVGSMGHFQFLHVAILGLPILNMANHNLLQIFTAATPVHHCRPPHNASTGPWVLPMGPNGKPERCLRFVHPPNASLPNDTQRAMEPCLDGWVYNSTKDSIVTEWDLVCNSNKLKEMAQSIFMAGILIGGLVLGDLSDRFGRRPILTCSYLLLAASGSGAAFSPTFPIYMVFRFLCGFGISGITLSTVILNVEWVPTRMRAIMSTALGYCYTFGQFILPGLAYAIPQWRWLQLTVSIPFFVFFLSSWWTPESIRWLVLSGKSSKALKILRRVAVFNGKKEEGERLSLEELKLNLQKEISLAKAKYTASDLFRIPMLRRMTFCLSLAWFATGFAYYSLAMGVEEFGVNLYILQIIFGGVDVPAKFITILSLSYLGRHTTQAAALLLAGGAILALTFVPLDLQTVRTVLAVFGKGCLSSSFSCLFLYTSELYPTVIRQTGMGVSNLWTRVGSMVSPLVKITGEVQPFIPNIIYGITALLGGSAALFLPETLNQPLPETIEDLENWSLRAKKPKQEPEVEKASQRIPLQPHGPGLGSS
Description for BCRP mRNA: (§2) After the incubation period, cells were harvested from the Transwell inserts for RNA extraction. […] Real-time quantitative PCR (qRT-PCR) was performed on an ABI Prism 7900HT Sequence Detection System (Applied Biosystems, Foster City, CA, United States) for the analysis of MDR1 and BCRP genes. Primers of housekeeping gene β-actin was used as internal controls. […] The relative gene expression levels were determined using the comparative CT method (ΔΔCT method). The cut-off CT was set at 35 cycles for all analyses. An arbitrary classification system was assigned to the data, designating relative expression levels >2 as high mRNA expression, levels between 2 and 1 as moderate mRNA expression, levels between 1 and 0.1 as low mRNA expression and levels <0.1 as unexpressed.
Description for MDR1 mRNA: as §2

Take `O=C(O)c1cn(C2CC2)c2cc(N3CCNCC3)c(F)cc2c1=O` [CIP, ciprofloxacin]: in data set [1], the “reduction of circulating CIP by concurrent use of PCE” value is given as 40%–50%. Besides, in data set [2] (ref Rohwedder et al., Haslam et al., 2011), the “share of an intravenous dose eliminated into the intestine” value is “Approximately 20%”. Moreover, the “excreted in unchanged form into the urine” value in data set [2] (ref Vance-Bryan et al.) is “Approximately 60%”.
Consider `COc1ccccc1Oc1c(NS(=O)(=O)c2ccc(C(C)(C)C)cc2)nc(-c2ncccn2)nc1OCCO` [bosentan, Bosentan], for which the “increase of BCRP mRNA expression” value in the data set on BCRP mRNA stood at 4.31 fold. For the same compound, the “increase of MDR1 (P-gp) mRNA expression” value in the data set on MDR1 mRNA is listed as 7.36 fold.
Turning to `CN/C(=N/CCSCc1nc[nH]c1C)NC#N` [cimetidine], the “effect of positive inhibitor on hOAT3” value at hOAT3 is listed as “Significant inhibitory effects”.
`CO[C@H]1/C=C/O[C@@]2(C)Oc3c(C)c(O)c4c(O)c(c(/C=N/N5CCN(C)CC5)c(O)c4c3C2=O)NC(=O)/C(C)=C\C=C\[C@H](C)[C@H](O)[C@@H](C)[C@@H](O)[C@@H](C)[C@H](OC(C)=O)[C@@H]1C` [rifampicin]: the “effect of positive inhibitor on hOCT2” value on hOCT2 was “Significant inhibitory effects”.
